Test results published in patent US8337916B2, “Use of Aphanamixis polystacha extracts or fractions against 5-lipoxygenase mediated diseases” (Laila Nutraceuticals, priority 2007, dated 2012).

What was measured:
paw edema = test: Freund complete adjuvant induced arthritis model, paw edema; format: in vivo, Sprague Dawley rats; settings: prednisolone 10 mg/kg body weight for 14 days; paw volume 13 days after FCA; vs CMC control
Method: The anti-oxidant and anti-inflammatory efficacies of Aphanamixis polystachya extract or fractions were evaluated by an in vivo study in Freund complete adjuvant induced arthritis model of Sprague Dawley rats. The rats of either sex were randomly selected and divided into three groups containing four animals in each group. Rats were supplemented with 50 mg/kg body weight of A. polystachya extract, or prednisolone (10 mg/kg body weight) for 14 days. The animals of control group received only the same volume of 1% Na CMC. At the 14 th day, Freund complete adjuvant (FCA) was injected subcutaneously in the sub-plantar region of the left hind paw of each animal. At the end of experiment, the animals were sacrificed and liver tissue samples were excised and stored in aliquot at −80° C. Blood samples were collected from each animal at a regular interval and paw volumes were measured by Plethysmography equipment after 13 days of FCA inoculation. The difference in volume of edema at the day of FCA injection and at 13th day after induction is considered as the inflammatory response. The in vivo anti-inflammatory response of A. polystachya was estimated by calculating, the percentage of inhibition of paw edema when compared with the CMC supplemented control rats and was compared with that of the positive control group supplemented with prednisolone as shown in FIG. 1.

[1] = DPPH free radical scavenging activity (method of Lamaison et al.); format: physicochemical; settings: methanolic DPPH, 517 nm
[2] = Superoxide radical scavenging activity (NBT method, McCord and Fridovich); format: biochemical; settings: riboflavin/NBT, phosphate buffer pH 7.8, 560 nm
Method: Superoxide radical scavenging activity of test substances was determined by the method of McCord and Fridovich. […] The tubes were mixed well and optical densities were measured at 560 nm. The tubes were uniformly illuminated with an incandescent lamp for 15 min. and the optical densities were measured again at 560 nm. The percentage inhibition of superoxide radical generation was measured by comparing the absorbance values of control and those of the test substances. The IC50 values were obtained from the plot drawn of the concentration (μg) verses percentage inhibition.

Row | SMILES | inhibition in paw edema (paw edema) [%] | DPPH method IC50 [1] [µg/mL] | NBT method IC50 (superoxide radical scavenging) [2] [µg/mL]
1 | C[C@]12C=CC(=O)C=C1CC[C@@H]1[C@@H]2[C@@H](O)C[C@@]2(C)[C@H]1CC[C@]2(O)C(=O)CO [prednisolone] | 47.4 |  | 
2 | O=C1O[C@H]([C@@H](O)CO)C(O)=C1O [Vitamin C] |  | 4.1 | 150
